Like-named read-outs stand apart in the source and are kept apart here.
How the values were obtained:
[1] = system: tetrabenazine induced ptosis; experiment: tetrabenazine induced ptosis assay (antidepressant activity); type: in vivo, mice; settings: Mus musculus, ip, read-out: ED50, inhibition of ptosis
Excerpt: The 3-(piperidinyl)- and 3-(pyrrolidinyl)-1H-indazoles of the present invention are also useful as antidepressants by virtue of their ability to elicit an antidepressant response in mammals. […] Thus, for example,. the intraperitoneal (i.p.) dose effecting an estimated 50% inhibition of ptosis (ED50) in mice produced in this assay is as follows: […]

[2] = system: mean arterial blood pressure; experiment: antihypertensive activity, indirect tail cuff method, spontaneous hypertensive rat; type: in vivo; settings: third day
Procedure: The compounds of the invention are also useful as antihypertensive agents due to their ability to depress blood pressure in mammals. Antihypertensive activity is measured in the spontaneous hypertensive rat by the indirect tail cuff method described in "Methods in Pharmacology," A. Schwartz, Ed., Vol. I, Appleton-Century Crofts, N.Y., 1971, p. 135. In this procedure a group of five animals are treated orally (p.o.) for three days with the test compound in relation to the control group of the same number. The drop in blood pressure is measured on the third day following administration. The antihypertensive activities of some of the compounds, expressed as mm decrease in mean arterial blood pressure are given below: […]

Row | SMILES | ED50 ([1]; estimated 50% inhibition) [mg/kg] | other results
1 | CN1CCC(c2nn(-c3ccccc3F)c3ccccc23)CC1.Cl [1-(2-Fluorophenyl)-3-(1-methyl-4-piperidinyl)-1H-indazole hydrochloride] | 1.7 | 
2 | CN1CCC(c2nn(-c3cccc(F)c3)c3ccccc23)CC1.Cl [1-(3-Fluorophenyl)-3-(1-methyl-4-piperidinyl)-1H-indazole hydrochloride] | 5 | 
3 | COC(=N)N1CCC(c2n[nH]c3ccccc23)CC1 [4-(1H-indazol-3-yl)piperidine-1-carboximidic acid methyl ester] |  | Decrease in Blood Pressure ([2]; 3 mg/kg p.o.): 47 mm Hg
4 | COC(=N)N1CCC(c2n[nH]c3cc(F)ccc23)CC1 [4-(6-fluoro-1H-indazol-3-yl)piperidine-1-carboximidic acid methyl ester] |  | Decrease in Blood Pressure ([2]; 30 mg/kg p.o.): 88 mm Hg
5 | CN1CCC(c2nn(-c3ccccc3F)c3cc(F)ccc23)CC1.O=C(O)/C=C/C(=O)O [6-Fluoro-1-(2-fluorophenyl)-3-(1-methyl-4-piperidinyl)-1H-indazole fumarate] | 6.3 | 
6 | CN(C)CCC=C1c2ccccc2CCc2ccccc21 [amitriptyline, reference compound] | 1.5 | 
7 | N=C(N)NCCN1CCCCCCC1 [guanethidine, reference compound] |  | Decrease in Blood Pressure ([2]; 50 mg/kg p.o.): 20 mm Hg
8 | CN(C)CCCN1c2ccccc2CCc2ccccc21 [imipramine, reference compound] |  | ED50 [1]: 1.3 mg/kg
